Laboratory results: patent US20020094522A1, “Means and methods for monitoring non-nucleoside reverse transcriptase inhibitor antiretroviral therapy and guiding therapeutic decisions in the treatment of HIV/AIDS” (priority 2000, published 2002)

Experiments:
[1] = tested on: RTV-268 (patient sample 97-268; P236L); assay: Phenotypic susceptibility assay, RTV-268; type: cell-based, HIV-1; settings: RTV-268 / patient 268
Source text: The resistance test vectors containing a functional luciferase gene cassette were constructed and host cells were transfected with the resistance test vector DNA. The resistant test vectors contained patient-derived reverse transcriptase and protease sequences that were either susceptible or resistant to the antiretroviral agents, such as nucleoside reverse transcriptase inhibitors, non-nucleoside reverse transcriptase inhibitors and protease inhibitors. The resistance test vector viral particles produced by transfecting the resistance test vector DNA into host cells, either in the presence or absence of protease inhibitors, were used to infect target host cells grown either in the absence of NRTI or NNRTI or in the presence of increasing concentrations of the drug. The amount of luciferase activity produced in infected target host cells in the presence of drug was compared to the amount of luciferase produced in infected target host cells in the absence of drug. Drug resistance was measured as the amount of drug required to inhibit by 50% the luciferase activity detected in the absence of drug (inhibitory concentration 50%, IC50). The IC50 values were determined by plotting percent drug inhibition vs. log10 drug concentration.
Host cells were seeded in 10-cm-diameter dishes and were transfected several days after plating with resistance test vector plasmid DNA and the envelope expression vector. Transfections were performed using a calcium-phosphate precipitation procedure. The cell culture media containing the DNA precipitate was replaced with fresh medium, from one to 24 hours, after transfection. Cell culture media containing resistance test vector viral particles was harvested one to four days after transfection and was passed through a […] filter before being stored at −80° C. HIV capsid protein (p24) levels in the harvested cell culture media were determined by an EIA method as described by the manufacturer (SIAC; Frederick, Md.). Before infection, target cells (293 and 293/T) were plated in cell culture media. Control infections were performed using cell culture media from mock transfections (no DNA) or transfections containing the resistance test vector plasmid DNA without the envelope expression plasmid. One to three or more days after infection the media was removed and cell lysis buffer (Promega) was added to each well. […] The inhibitory effect of the drug was determined using the following equation: […]
where RLUluc [drug] is the relative light unit of luciferase activity in infected cells in the presence of drug and RLUluc is the Relative Light Unit of luciferase activity in infected cells in the absence of drug. IC50 values were obtained from the sigmoidal curves that were generated from the data by plotting the percent inhibition of luciferase activity vs. the log10 drug concentration.
A resistance test vector was constructed as described in Example 1 from a patient sample designated 97-268. […] Isolation of viral RNA and RT/PCR was used to generate a patient derived segment that comprised viral sequences coding for all of PR and amino acids 1-313 of RT. The patient derived segment was inserted into a indicator gene viral vector to generate a resistance test vector designated RTV-268. RTV-268 was then tested using the phenotypic susceptibility assay to determine accurately and quantitatively the level of susceptibility to a panel of anti-retroviral drugs. […] An IC50 was determined for each drug tested. Susceptibility of the patient virus to each drug was examined and compared to the susceptibility of a reference virus. […] The sample was examined further for genotypic changes associated with the pattern of susceptibility.

[2] = tested on: T66I integrase site-directed mutant resistance test vector; assay: Phenotypic susceptibility assay, T66I integrase mutant vector; type: cell-based, HIV; settings: T66I integrase mutant
Method: Transfections were performed using a calcium-phosphate precipitation procedure. […] Cell lysates were assayed for luciferase activity (FIG. 3).
The drug inhibition curves are shown in (FIG. 3).
A resistance test vector containing the threonine to isoleucine mutation at position 66 of the integrase protein (T66I) was constructed and tested using the phenotypic assay described earlier.

Compound	susceptibility/resistance compared to reference virus [1]	reduction in susceptibility compared to wild type control RTV [2]
Nc1ccn([C@@H]2CS[C@H](CO)O2)c(=O)n1 [3TC]	significant resistance	
Cc1cn([C@H]2C[C@H](N=[N+]=[N-])[C@@H](CO)O2)c(=O)[nH]c1=O [AZT]	significant resistance	
O=C(O)C(=O)CC(=O)c1cccn1Cc1ccc(F)cc1 [L-731,988]		4.7 fold
Cc1cn([C@H]2C=C[C@@H](CO)O2)c(=O)[nH]c1=O [d4T]	slight shifts in susceptibility	
Nc1ccn([C@H]2CC[C@@H](CO)O2)c(=O)n1 [ddC]	slight shifts in susceptibility	
O=c1[nH]cnc2c1ncn2[C@H]1CC[C@@H](CO)O1 [ddI]	slight shifts in susceptibility	
